Reference: US9242940B2, “N-substituted bis(fluoroalkyl)-1,4-benzodiazepinone compounds” (BRISTOL-MYERS SQUIBB COMPANY, priority 2012, dated 2016)

Assay: Metabolic Stability Half-Life Panel, human liver microsomes
Type: in vitro ADME
Conditions: pH 7.4, human liver microsomes, 0.5 μM compound, NADPH, 45-minute time course, read-out: HLM (t1/2, min.)
From the text: Metabolic Stability Half-Life Panel

Compound	half-life at 0.5 μM [min]
COc1ccc(C2=N[C@H](NC(=O)[C@H](CCC(F)(F)F)[C@H](CCC(F)(F)F)C(N)=O)C(=O)N(CC3CC3)c3ccccc32)cc1 [Example 6, (2R,3S)-N-((3S)-1-(Cyclopropylmethyl)-5-(4-methoxyphenyl)-2-oxo-2,3-dihydro-1H-1,4-benzodiazepin-3-yl)-2,3-bis(3,3,3-trifluoropropyl)succinamide]	≥ 67
CC(F)(F)C[C@@H](C(=O)N[C@H]1N=C(c2ccccc2)c2ccccc2N(CC2CC2)C1=O)[C@H](CCC(F)(F)F)C(N)=O [Example 9, (2R,3S)-N-((3S)-1-(Cyclopropylmethyl)-2-oxo-5-phenyl-2,3-dihydro-1H-1,4-benzodiazepin-3-yl)-2-(2,2-difluoropropyl)-3-(3,3,3-trifluoropropyl)succinamide]	≥ 67
NC(=O)[C@@H](CCC(F)(F)F)[C@@H](CCC(F)(F)F)C(=O)N[C@H]1N=C(c2ccccc2)c2ccccc2N(c2ccc(Cl)cn2)C1=O [Example 2, (2R,3S)-N-((3S)-1-(5-Chloro-2-pyridinyl)-2-oxo-5-phenyl-2,3-dihydro-1H-1,4-benzodiazepin-3-yl)-2,3-bis(3,3,3-trifluoropropyl)succinamide]	≥ 67
CC(F)(F)C[C@H](C(N)=O)[C@@H](CCC(F)(F)F)C(=O)N[C@H]1N=C(c2ccccc2)c2ccccc2N(CC2CC2)C1=O [Example 8, (2R,3S)-N-((3S)-1-(Cyclopropylmethyl)-2-oxo-5-phenyl-2,3-dihydro-1H-1,4-benzodiazepin-3-yl)-3-(2,2-difluoropropyl)-2-(3,3,3-trifluoropropyl)succinamide]	≥ 67
NC(=O)[C@@H](CCC(F)(F)F)[C@@H](CCC(F)(F)F)C(=O)N[C@H]1N=C(c2ccccc2)c2cc3c(cc2N(c2ccccn2)C1=O)OCO3 [Example 3, (2R,3S)-N-((7S)-6-Oxo-9-phenyl-5-(2-pyridinyl)-6,7-dihydro-5H-[1,3]dioxolo[4,5-h][1,4]benzodiazepin-7-yl)-2,3-bis(3,3,3-trifluoropropyl)succinamide]	≥ 67
NC(=O)[C@@H](CCCC(F)(F)F)[C@@H](CCC(F)(F)F)C(=O)N[C@H]1N=C(c2ccccc2)c2ccccc2N(c2cccnc2)C1=O [Example 4, (2R,3S)-N-((3S)-2-Oxo-5-phenyl-1-(3-pyridinyl)-2,3-dihydro-1H-1,4-benzodiazepin-3-yl)-3-(4,4,4-trifluorobutyl)-2-(3,3,3-trifluoropropyl)succinamide]	≥ 67
NC(=O)[C@@H](CCCC(F)(F)F)[C@@H](CCC(F)(F)F)C(=O)N[C@H]1N=C(c2ccccc2)c2ccccc2N(c2ccccn2)C1=O [Example 1, (2R,3S)-N-((3S)-2-Oxo-5-phenyl-1-(2-pyridinyl)-2,3-dihydro-1H-1,4-benzodiazepin-3-yl)-3-(4,4,4-trifluorobutyl)-2-(3,3,3-trifluoropropyl)succinamide]	≥ 67
NC(=O)[C@@H](CCC(F)(F)F)[C@@H](CCC(F)(F)F)C(=O)N[C@H]1N=C(c2ccccc2)c2ccccc2N(c2cccnc2)C1=O [Example 5, (2R,3S)-N-((3S)-2-Oxo-5-phenyl-1-(3-pyridinyl)-2,3-dihydro-1H-1,4-benzodiazepin-3-yl)-2,3-bis(3,3,3-trifluoropropyl)succinamide]	≥ 67
COc1ccc2c(c1)C(c1ccccc1)=N[C@H](NC(=O)[C@H](CCC(F)(F)F)[C@H](CCC(F)(F)F)C(N)=O)C(=O)N2CC(F)(F)F [Example 7, (2R,3S)-N-((3S)-7-Methoxy-2-oxo-5-phenyl-1-(2,2,2-trifluoroethyl)-2,3-dihydro-1H-1,4-benzodiazepin-3-yl)-2,3-bis(3,3,3-trifluoropropyl)succinamide]	≥ 67
